Assay results taken from ChEMBL document CHEMBL3885881, “DrugMatrix”.

Species: Rattus norvegicus
Assay: DrugMatrix - Regimen: Daily Repeat
Assay type: toxicity, organism-based, Sprague-Dawley
Parameters: regimen Daily Repeat, gender Male, age 6-8 weeks
Conditions: in vivo, sc, route subcutaneous, […]; for ABSOLUTE BASOPHIL / ABSOLUTE EOSINOPHIL / ABSOLUTE LYMPHOCYTE / ABSOLUTE MONOCYTE / ABSOLUTE SEGMENTED NEUTROPHIL / BASOPHIL / EOSINOPHIL / ERYTHROCYTE COUNT / HEMATOCRIT / HEMOGLOBIN / LEUKOCYTE COUNT / LYMPHOCYTE / MEAN CORPUSCULAR HEMOGLOBIN / MEAN CORPUSCULAR HEMOGLOBIN CONCENTRATION / MEAN CORPUSCULAR VOLUME / MONOCYTE / NEUTROPHIL / NUCLEATED RED BLOOD CELLS / PLATELET COUNT: tissue Blood; for ALANINE AMINOTRANSFERASE / ALBUMIN / ALKALINE PHOSPHATASE / ASPARTATE AMINOTRANSFERASE / BLOOD UREA NITROGEN / CARBON DIOXIDE / CHLORIDE / CHOLESTEROL / CREATINE PHOSPHOKINASE / CREATININE / GLUCOSE / LACTATE DEHYDROGENASE / LIPASE / PHOSPHORUS / POTASSIUM / SODIUM / TOTAL BILIRUBIN / TOTAL PROTEIN / URIC ACID: tissue Plasma
[1] = 0 mg/kg, 72 h, dose level Control, time 3 day
[2] = 0 mg/kg, 120 h, dose level Control, time 5 day
[3] = 27 mg/kg, 72 h, dose level Low, time 3 day

## Clc1ccc(CSC(Cn2ccnc2)c2ccc(Cl)cc2Cl)cc1 (centres undefined) [SULCONAZOLE]
[1]
  ABSOLUTE BASOPHIL: 0 CELLS/uL
  ABSOLUTE EOSINOPHIL: 42.67 CELLS/uL
  ABSOLUTE LYMPHOCYTE: 10202 CELLS/uL
  ABSOLUTE MONOCYTE: 261.5 CELLS/uL
  ABSOLUTE SEGMENTED NEUTROPHIL: 2193.83 CELLS/uL
  BASOPHIL: 0%
  EOSINOPHIL: 0.33%
  ERYTHROCYTE COUNT: 5.63 x10E6/uL
  HEMATOCRIT: 35.35%
  HEMOGLOBIN: 13.07 G/DL
  LEUKOCYTE COUNT: 12.7 x10E3/uL
  LYMPHOCYTE: 81.17%
  MEAN CORPUSCULAR HEMOGLOBIN: 23.23 pg
  MEAN CORPUSCULAR HEMOGLOBIN CONCENTRATION: 36.97 G/DL
  MEAN CORPUSCULAR VOLUME: 62.82 fL
  MONOCYTE: 2%
  NEUTROPHIL: 16.5%
  NUCLEATED RED BLOOD CELLS: 0 /100WBC
  PLATELET COUNT: 1180.33 x10E3/uL
  ALANINE AMINOTRANSFERASE: 48.67 u/L
  ALBUMIN: 4.08 G/DL
  ALKALINE PHOSPHATASE: 360.67 u/L
  ASPARTATE AMINOTRANSFERASE: 85.5 u/L
  BLOOD UREA NITROGEN: 17.83 mg/dL
  CARBON DIOXIDE: 26.17 mmol/L
  CHLORIDE: 101.83 MEQ/L
  CHOLESTEROL: 71 mg/dL
  CREATINE PHOSPHOKINASE: 515.17 u/L
  CREATININE: 0.22 mg/dL
  GLUCOSE: 192.5 mg/dL
  LACTATE DEHYDROGENASE: 214.67 u/L
  LIPASE: 8.5 u/L
  PHOSPHORUS: 12.95 mg/dL
  POTASSIUM: 6.39 MEQ/L
  SODIUM: 142.38 MEQ/L
  TOTAL BILIRUBIN: 0.18 mg/dL
  TOTAL PROTEIN: 5.95 G/DL
  URIC ACID: 1.83 mg/dL
[2]
  ABSOLUTE BASOPHIL: 0 CELLS/uL
  ABSOLUTE EOSINOPHIL: 188.5 CELLS/uL
  ABSOLUTE LYMPHOCYTE: 12360.83 CELLS/uL
  ABSOLUTE MONOCYTE: 64.33 CELLS/uL
  ABSOLUTE SEGMENTED NEUTROPHIL: 1986.33 CELLS/uL
  BASOPHIL: 0%
  EOSINOPHIL: 1.33%
  ERYTHROCYTE COUNT: 5.52 x10E6/uL
  HEMATOCRIT: 35.82%
  HEMOGLOBIN: 13.25 G/DL
  LEUKOCYTE COUNT: 14.6 x10E3/uL
  LYMPHOCYTE: 84.5%
  MEAN CORPUSCULAR HEMOGLOBIN: 24.05 pg
  MEAN CORPUSCULAR HEMOGLOBIN CONCENTRATION: 36.98 G/DL
  MEAN CORPUSCULAR VOLUME: 64.97 fL
  MONOCYTE: 0.5%
  NEUTROPHIL: 13.67%
  NUCLEATED RED BLOOD CELLS: 0 /100WBC
  PLATELET COUNT: 1297.83 x10E3/uL
  ALANINE AMINOTRANSFERASE: 51.17 u/L
  ALBUMIN: 4.08 G/DL
  ALKALINE PHOSPHATASE: 393.17 u/L
  ASPARTATE AMINOTRANSFERASE: 111 u/L
  BLOOD UREA NITROGEN: 18.17 mg/dL
  CARBON DIOXIDE: 25 mmol/L
  CHLORIDE: 105.17 MEQ/L
  CHOLESTEROL: 65.5 mg/dL
  CREATINE PHOSPHOKINASE: 911.5 u/L
  CREATININE: 0.21 mg/dL
  GLUCOSE: 183 mg/dL
  LACTATE DEHYDROGENASE: 189 u/L
  LIPASE: 8.33 u/L
  PHOSPHORUS: 12.78 mg/dL
  POTASSIUM: 6.05 MEQ/L
  SODIUM: 144.57 MEQ/L
  TOTAL BILIRUBIN: 0.25 mg/dL
  TOTAL PROTEIN: 5.83 G/DL
  URIC ACID: 1.58 mg/dL
[3]
  ABSOLUTE BASOPHIL: 0 CELLS/uL
  ABSOLUTE EOSINOPHIL: 84.67 CELLS/uL
  ABSOLUTE LYMPHOCYTE: 11847.67 CELLS/uL
  ABSOLUTE MONOCYTE: 101 CELLS/uL
  ABSOLUTE SEGMENTED NEUTROPHIL: 2233.33 CELLS/uL
  BASOPHIL: 0%
  EOSINOPHIL: 0.67%
  ERYTHROCYTE COUNT: 5.29 x10E6/uL
  HEMATOCRIT: 32.9%
  HEMOGLOBIN: 12.1 G/DL
  LEUKOCYTE COUNT: 14.27 x10E3/uL
  LYMPHOCYTE: 83.33%
  MEAN CORPUSCULAR HEMOGLOBIN: 22.9 pg
  MEAN CORPUSCULAR HEMOGLOBIN CONCENTRATION: 36.8 G/DL
  MEAN CORPUSCULAR VOLUME: 62.23 fL
  MONOCYTE: 0.67%
  NEUTROPHIL: 15.33%
  NUCLEATED RED BLOOD CELLS: 0 /100WBC
  PLATELET COUNT: 979.33 x10E3/uL
  ALANINE AMINOTRANSFERASE: 50.67 u/L
  ALBUMIN: 4.07 G/DL
  ALKALINE PHOSPHATASE: 355.67 u/L
  ASPARTATE AMINOTRANSFERASE: 89 u/L
  BLOOD UREA NITROGEN: 18 mg/dL
  CARBON DIOXIDE: 26.33 mmol/L
  CHLORIDE: 105.67 MEQ/L
  CHOLESTEROL: 74.33 mg/dL
  CREATINE PHOSPHOKINASE: 269.33 u/L
  CREATININE: 0.22 mg/dL
  GLUCOSE: 174 mg/dL
  LACTATE DEHYDROGENASE: 83.33 u/L
  LIPASE: 8.33 u/L
  PHOSPHORUS: 14.23 mg/dL
  POTASSIUM: 5.88 MEQ/L
  SODIUM: 146.57 MEQ/L
  TOTAL BILIRUBIN: 0.17 mg/dL
  TOTAL PROTEIN: 5.83 G/DL
  URIC ACID: 1.5 mg/dL
